Blank lines part the entries; values can stand above or below the compound they belong to.
How the values were obtained:
Angiotensin II receptor [1] = biological target: T1, Angiotensin II receptor (Rattus norvegicus, UniProt P29089+P25095+P35351); test: Tested for inhibition of radioligand [Sar1,Ile5,8]AII binding to angiotensin II receptor in rat brain; format: tissue-based
T1 sequence (P29089 whole entry): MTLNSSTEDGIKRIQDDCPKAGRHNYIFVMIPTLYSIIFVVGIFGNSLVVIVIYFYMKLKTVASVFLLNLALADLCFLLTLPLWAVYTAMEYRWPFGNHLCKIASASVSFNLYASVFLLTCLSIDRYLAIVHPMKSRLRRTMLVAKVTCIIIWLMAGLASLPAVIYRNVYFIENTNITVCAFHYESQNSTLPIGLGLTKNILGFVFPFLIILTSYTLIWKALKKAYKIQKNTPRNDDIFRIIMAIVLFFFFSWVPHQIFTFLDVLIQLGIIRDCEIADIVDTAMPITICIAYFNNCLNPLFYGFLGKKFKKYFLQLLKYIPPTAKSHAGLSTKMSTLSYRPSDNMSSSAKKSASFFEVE
T1 sequence (P25095 whole entry): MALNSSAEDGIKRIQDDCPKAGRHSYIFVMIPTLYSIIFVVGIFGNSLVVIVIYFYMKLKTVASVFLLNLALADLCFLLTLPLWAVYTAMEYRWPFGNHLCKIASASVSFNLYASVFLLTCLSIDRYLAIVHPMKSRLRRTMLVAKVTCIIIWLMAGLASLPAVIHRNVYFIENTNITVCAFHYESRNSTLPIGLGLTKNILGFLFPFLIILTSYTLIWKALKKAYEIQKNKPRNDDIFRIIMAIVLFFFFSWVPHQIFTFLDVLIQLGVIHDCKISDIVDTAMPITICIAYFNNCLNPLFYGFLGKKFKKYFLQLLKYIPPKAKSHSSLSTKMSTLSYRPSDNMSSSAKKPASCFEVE
T1 sequence (P35351 whole entry): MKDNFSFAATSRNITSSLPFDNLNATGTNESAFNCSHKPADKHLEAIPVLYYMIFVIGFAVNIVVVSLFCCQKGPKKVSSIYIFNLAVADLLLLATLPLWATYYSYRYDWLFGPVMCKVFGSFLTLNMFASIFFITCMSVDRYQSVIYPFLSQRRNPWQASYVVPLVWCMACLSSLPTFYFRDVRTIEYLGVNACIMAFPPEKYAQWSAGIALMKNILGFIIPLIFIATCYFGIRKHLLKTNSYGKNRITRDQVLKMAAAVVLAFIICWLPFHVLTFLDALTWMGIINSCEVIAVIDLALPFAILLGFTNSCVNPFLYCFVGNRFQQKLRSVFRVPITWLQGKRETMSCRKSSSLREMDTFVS

Angiotensin II receptor [2] = biological target: T1, Angiotensin II receptor; test: Tested for inhibition of radioligand [Sar1,Ile5,8]AII binding to angiotensin II receptor in rat uterus
Rattus norvegicus [3] = organism: Rattus norvegicus; test: Inhibitory activity was determined in rat uterine preparations at a compound dose of 4 ng/mL; format: functional
Rattus norvegicus [4] = organism: Rattus norvegicus; test: Inhibitory activity was determined in rat uterine preparations at a compound dose of 2 ng/mL; format: functional
Rattus norvegicus [5] = organism: Rattus norvegicus; test: Inhibitory activity was determined in rat uterine preparations at a compound dose of 6 ng/mL; format: functional
Rattus norvegicus [6] = organism: Rattus norvegicus; test: Agonistic activity in rat uterine preparations; format: functional
Rattus norvegicus [7] = organism: Rattus norvegicus; test: Time period for the pressor response of angiotensin II to return to 50% of its treatment level at a compound dose of 60 ug; format: functional, organism-based
Rattus norvegicus [8] = organism: Rattus norvegicus; test: Time period for the pressor response of angiotensin II to return to 50% of its treatment level at a compound dose of 10 ug; format: functional, organism-based
[9] = biological target: T2, Angiotensin II receptor (Rattus norvegicus) (UniProt P29089+P25095+P35351); test: Inhibitory activity was determined against Angiotensin II receptor in rat uterine preparations at a compound dose of 6 ng/mL
Rattus norvegicus [10] = organism: Rattus norvegicus; test: Time period for the pressor response of angiotensin II to return to 50% of its treatment level at a compound dose of 30 ug; format: functional, organism-based
[11] = biological target: T2, Angiotensin II receptor (Rattus norvegicus); test: Inhibitory activity was determined against Angiotensin II receptor in rat uterine preparations at a compound dose of 4 ng/mL
[12] = biological target: T2, Angiotensin II receptor (Rattus norvegicus); test: Inhibitory activity was determined against Angiotensin II receptor in rat uterine preparations at a compound dose of 2 ng/mL

Compound: CNCC(=O)N[C@@H](CCCN=C(N)N)C(=O)N[C@H](C(=O)N[C@@H](Cc1ccc(O)cc1)C(=O)N[C@H](C(=O)N[C@@H](Cc1c[nH]cn1)C(=O)N1CCC[C@H]1C(=O)N[C@H](Cc1ccc(-c2ccccc2)cc1)C(=O)O)C(C)C)C(C)C [listing 1 of 2 here]
Activity (Rattus norvegicus [3]): 24.6
Activity (Rattus norvegicus [4]): 7.2
Activity (Rattus norvegicus [5]): 44.7

Compound: CNCC(=O)N[C@@H](CCCN=C(N)N)C(=O)N[C@H](C(=O)N[C@@H](Cc1ccc(O)cc1)C(=O)N[C@H](C(=O)N[C@@H](Cc1c[nH]cn1)C(=O)N1CCC[C@H]1C(=O)NC1(C(=O)O)Cc2ccccc2C1)C(C)C)C(C)C [listing 1 of 2 here]
Activity (Rattus norvegicus [3]): 16.2
Activity (Rattus norvegicus [4]): 8.7
Activity (Rattus norvegicus [5]): 31.8

Compound: CNCC(=O)N[C@@H](CCCN=C(N)N)C(=O)N[C@H](C(=O)N[C@@H](Cc1ccc(O)cc1)C(=O)N[C@H](C(=O)N[C@@H](Cc1c[nH]cn1)C(=O)N1CCC[C@H]1C(=O)N[C@H](C(=O)O)C(c1ccccc1)c1ccccc1)C(C)C)C(C)C [listing 2 of 2 here]
Activity (Rattus norvegicus [6]): 284%

Compound: CNCC(=O)N[C@@H](CCCN=C(N)N)C(=O)N[C@H](C(=O)N[C@@H](Cc1ccc(O)cc1)C(=O)N[C@H](C(=O)N[C@@H](Cc1c[nH]cn1)C(=O)N1CCC[C@H]1C(=O)N[C@@H](Cc1ccc(-c2ccccc2)cc1)C(=O)O)C(C)C)C(C)C [listing 2 of 2 here]
Activity (Rattus norvegicus [3]): 71.7
Activity (Rattus norvegicus [4]): 9.2
Activity (Rattus norvegicus [5]): 208.2

Compound: CNCC(=O)N[C@@H](CCCN=C(N)N)C(=O)N[C@H](C(=O)N[C@@H](Cc1ccc(O)cc1)C(=O)N[C@H](C(=O)N[C@@H](Cc1c[nH]cn1)C(=O)N1CCC[C@H]1C(=O)N[C@@H](C(=O)O)C(c1ccccc1)c1ccccc1)C(C)C)C(C)C [listing 2 of 2 here]
Activity (Rattus norvegicus [6]): 48%

Now from value to compound, other results behind:

Ki (Angiotensin II receptor [1]): 0.85 nM
Ki (Angiotensin II receptor [2]): 1.23 nM
Compound: CNCC(=O)N[C@@H](CCCN=C(N)N)C(=O)N[C@H](C(=O)N[C@@H](Cc1ccc(O)cc1)C(=O)N[C@H](C(=O)N[C@@H](Cc1c[nH]cn1)C(=O)N1CCC[C@H]1C(=O)N[C@H](C(=O)O)C(c1ccccc1)c1ccccc1)C(C)C)C(C)C [listing 1 of 2 here]

Ki (Angiotensin II receptor [1]): 9310 nM
Ki (Angiotensin II receptor [2]): 52.8 nM
Compound: CNCC(=O)N[C@@H](CCCN=C(N)N)C(=O)N[C@H](C(=O)N[C@@H](Cc1ccc(O)cc1)C(=O)N[C@H](C(=O)N[C@@H](Cc1c[nH]cn1)C(=O)N1CCC[C@H]1C(N)=O)C(C)C)C(C)C

Ki (Angiotensin II receptor [1]): 0.46 nM
Ki (Angiotensin II receptor [2]): 0.74 nM
Compound: CNCC(=O)N[C@@H](CCCN=C(N)N)C(=O)N[C@H](C(=O)N[C@@H](Cc1ccc(O)cc1)C(=O)N[C@H](C(=O)N[C@@H](Cc1c[nH]cn1)C(=O)N1CCC[C@H]1C(=O)N[C@H](Cc1ccc(-c2ccccc2)cc1)C(=O)O)C(C)C)C(C)C [listing 2 of 2 here]

Ki (Angiotensin II receptor [1]): 1 nM
Ki (Angiotensin II receptor [2]): 1.74 nM
Compound: CNCC(=O)N[C@@H](CCCN=C(N)N)C(=O)N[C@H](C(=O)N[C@@H](Cc1ccc(O)cc1)C(=O)N[C@H](C(=O)N[C@@H](Cc1c[nH]cn1)C(=O)N1CCC[C@H]1C(=O)N[C@@H](Cc1ccc(-c2ccccc2)cc1)C(=O)O)C(C)C)C(C)C [listing 1 of 2 here]

Ki (Angiotensin II receptor [1]): 1.82 nM
Ki (Angiotensin II receptor [2]): 1.52 nM
Compound: CNCC(=O)N[C@@H](CCCN=C(N)N)C(=O)N[C@H](C(=O)N[C@@H](Cc1ccc(O)cc1)C(=O)N[C@H](C(=O)N[C@@H](Cc1c[nH]cn1)C(=O)N1CCC[C@H]1C(=O)NC1(C(=O)O)Cc2ccccc2C1)C(C)C)C(C)C [listing 2 of 2 here]

Ki (Angiotensin II receptor [1]): 1.64 nM
Ki (Angiotensin II receptor [2]): 5.48 nM
Compound: H-NRVYVHPF-OH [ANGIOTENSIN AMIDE]
Activity (Rattus norvegicus [6]): 100%

Ki (Angiotensin II receptor [1]): 1.64 nM
Ki (Angiotensin II receptor [2]): 6.08 nM
Compound: CNCC(=O)N[C@@H](CCCN=C(N)N)C(=O)N[C@H](C(=O)N[C@@H](Cc1ccc(O)cc1)C(=O)N[C@H](C(=O)N[C@@H](Cc1c[nH]cn1)C(=O)N1CCC[C@H]1C(=O)N[C@@H](C(=O)O)C(c1ccccc1)c1ccccc1)C(C)C)C(C)C [listing 1 of 2 here]

Activity [9]: 22.2
Activity [11]: 3.9
Activity [12]: 1.7
Compound: CNCC(=O)N[C@@H](CCCN=C(N)N)C(=O)N[C@H](C(=O)N[C@@H](Cc1ccc(O)cc1)C(=O)N[C@H](C(=O)N[C@@H](Cc1c[nH]cn1)C(=O)N1CCC[C@@H]1C(=O)N[C@H](CC(C)C)C(=O)O)C(C)C)C(C)C
Recovery time (Rattus norvegicus [7]): 83 min
Recovery time (Rattus norvegicus [8]): 34 min
Recovery time (Rattus norvegicus [10]): 72 min

— ChEMBL document CHEMBL1124659 (J Med Chem, 1989)
